Results taken from PubChem BioAssay AID248 (DTP/NCI, 2004).
“And” between values parts separate entries of the source, which are not always exact repeats. Equal entries are not always repeated. Inconclusive results and toxic doses are left out.

System: L1210 leukemia ip in BDF1 mice, survival T/C
Assay: NCI In Vivo Anticancer Drug Screen. Data for tumor model L1210 Leukemia (intraperitoneal) in B6D2F1 (BDF1) mice
Details: endpoint: mean survival time, higher = longer survival
In short: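 Each compound was tested against a transplantable tumor grown in mice. The endpoint was survival, with treated animals benchmarked against vehicle controls as a simple ratio.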

[1] = dose: 50.0 mg/kg/injection, schedule: Q01DX001 (ip), vehicle: saline
[2] = dose: 100.0 mg/kg/injection, schedule: Q01DX001 (ip), vehicle: saline
[3] = dose: 100.0 mg/kg/injection, schedule: Q01DX009 (ip), vehicle: saline
[4] = dose: 100.0 mg/kg/injection, schedule: Q04DX003 (ip), vehicle: saline
[5] = dose: 200.0 mg/kg/injection, schedule: Q01DX001 (ip), vehicle: saline
[6] = dose: 200.0 mg/kg/injection, schedule: Q04DX003 (ip), vehicle: saline
[7] = dose: 400.0 mg/kg/injection, schedule: Q01DX001 (ip), vehicle: saline
[8] = dose: 400.0 mg/kg/injection, schedule: Q01DX009 (ip), vehicle: saline
[9] = dose: 400.0 mg/kg/injection, schedule: Q04DX003 (ip), vehicle: saline
[10] = dose: 200.0 mg/kg/injection, schedule: Q01DX009 (ip), vehicle: saline
[11] = dose: 100.0 mg/kg/injection, schedule: Q04DX003 (ip), vehicle: Klucel (hydroxypropylcellulose) (HPC)
[12] = dose: 200.0 mg/kg/injection, schedule: Q04DX003 (ip), vehicle: Klucel (hydroxypropylcellulose) (HPC)
[13] = dose: 400.0 mg/kg/injection, schedule: Q04DX003 (ip), vehicle: Klucel (hydroxypropylcellulose) (HPC)
[14] = dose: 100.0 mg/kg/injection, schedule: Q01DX009 (ip), vehicle: Klucel (hydroxypropylcellulose) (HPC)
[15] = dose: 200.0 mg/kg/injection, schedule: Q01DX009 (ip), vehicle: Klucel (hydroxypropylcellulose) (HPC)
[16] = dose: 400.0 mg/kg/injection, schedule: Q01DX009 (ip), vehicle: Klucel (hydroxypropylcellulose) (HPC)
[17] = dose: 100.0 mg/kg/injection, schedule: Q01DX001 (ip), vehicle: saline with Tween-80
[18] = dose: 100.0 mg/kg/injection, schedule: Q01DX009 (ip), vehicle: saline with Tween-80
[19] = dose: 100.0 mg/kg/injection, schedule: Q04DX002 (ip), vehicle: saline with Tween-80
[20] = dose: 100.0 mg/kg/injection, schedule: Q04DX003 (ip), vehicle: saline with Tween-80
[21] = dose: 200.0 mg/kg/injection, schedule: Q01DX001 (ip), vehicle: saline with Tween-80
[22] = dose: 200.0 mg/kg/injection, schedule: Q01DX009 (ip), vehicle: saline with Tween-80
[23] = dose: 200.0 mg/kg/injection, schedule: Q04DX002 (ip), vehicle: saline with Tween-80
[24] = dose: 200.0 mg/kg/injection, schedule: Q04DX003 (ip), vehicle: saline with Tween-80
[25] = dose: 400.0 mg/kg/injection, schedule: Q01DX001 (ip), vehicle: saline with Tween-80
[26] = dose: 400.0 mg/kg/injection, schedule: Q01DX009 (ip), vehicle: saline with Tween-80
[27] = dose: 400.0 mg/kg/injection, schedule: Q04DX002 (ip), vehicle: saline with Tween-80
[28] = dose: 400.0 mg/kg/injection, schedule: Q04DX003 (ip), vehicle: saline with Tween-80
[29] = dose: 100.0 mg/kg/injection, schedule: Q01DX001 (ip), vehicle: carboxymethylcellulose (CMC)
[30] = dose: 200.0 mg/kg/injection, schedule: Q01DX001 (ip), vehicle: carboxymethylcellulose (CMC)
[31] = dose: 400.0 mg/kg/injection, schedule: Q01DX001 (ip), vehicle: carboxymethylcellulose (CMC)

## CN(C)N=Nc1n[nH]nc1C(N)=O
[1]
  T/C: 102 % of control
dose: 66.0 mg/kg/injection, schedule: Q01DX Z (ip), vehicle: carboxymethylcellulose (CMC)
  T/C: 112 % of control
[2]
  T/C: 109 % of control and 118 % of control
[3]
  T/C: 113 % of control
dose: 100.0 mg/kg/injection, schedule: Q01DX Z (ip), vehicle: carboxymethylcellulose (CMC)
  T/C: 106 % of control
[4]
  T/C: 98 % of control
dose: 134.0 mg/kg/injection, schedule: Q01DX009 (ip), vehicle: saline
  T/C: 117 % of control
dose: 168.0 mg/kg/injection, schedule: Q01DX Z (ip), vehicle: carboxymethylcellulose (CMC)
  T/C: 116 % of control
[5]
  T/C: 107 % of control and 118 % of control
[6]
  T/C: 120 % of control
dose: 287.0 mg/kg/injection, schedule: Q04DX003 (ip), vehicle: saline
  T/C: 102 % of control
dose: 287.5 mg/kg/injection, schedule: Q01DX001 (ip), vehicle: saline
  T/C: 103 % of control
[7]
  T/C: 115 % of control
[8]
  T/C: 154 % of control
[9]
  T/C: 124 % of control
dose: 575.0 mg/kg/injection, schedule: Q01DX001 (ip), vehicle: saline
  T/C: 109 % of control
dose: 575.0 mg/kg/injection, schedule: Q04DX003 (ip), vehicle: saline
  T/C: 110 % of control
dose: 1150.0 mg/kg/injection, schedule: Q01DX001 (ip), vehicle: saline
  T/C: 117 % of control
dose: 1150.0 mg/kg/injection, schedule: Q04DX003 (ip), vehicle: saline
  T/C: 112 % of control

## CCN(CC)C(=O)NC1CCCN1C (stereo not given)
[3]
  T/C: 96 % of control
[4]
  T/C: 97 % of control
[10]
  T/C: 101 % of control
[6]
  T/C: 107 % of control
[8]
  T/C: 109 % of control
[9]
  T/C: 103 % of control

## CCC(C)[n+]1cc([O-])on1 (stereo not given)
dose: 12.5 mg/kg/injection, schedule: Q01DX009 (ip), vehicle: Klucel (hydroxypropylcellulose) (HPC)
  T/C: 98 % of control
dose: 25.0 mg/kg/injection, schedule: Q01DX009 (ip), vehicle: Klucel (hydroxypropylcellulose) (HPC)
  T/C: 98 % of control
dose: 50.0 mg/kg/injection, schedule: Q01DX009 (ip), vehicle: Klucel (hydroxypropylcellulose) (HPC)
  T/C: 95 % of control

## CC(C(=O)c1ccc(F)cc1)C(O)(C(F)(F)F)C(F)(F)F (stereo not given)
[11]
  T/C: 94 % of control
[12]
  T/C: 95 % of control
[13]
  T/C: 103 % of control

## C[n+]1c(I)ccc2ccccc21
dose: 100.0 mg/kg/injection, schedule: Q01DX001 (ip), vehicle: other
  T/C: 105 % of control
dose: 200.0 mg/kg/injection, schedule: Q01DX001 (ip), vehicle: other
  T/C: 105 % of control
dose: 400.0 mg/kg/injection, schedule: Q01DX001 (ip), vehicle: other
  T/C: 110 % of control

## CCOC(=O)c1cnc(SC)nc1NCCc1ccccc1
[14]
  T/C: 98 % of control
[15]
  T/C: 91 % of control
[16]
  T/C: 95 % of control

## Nc1ccc(S(=O)(=O)Nc2ccc(I)cc2)cc1
[14]
  T/C: 100 % of control
[11]
  T/C: 100 % of control
[15]
  T/C: 96 % of control
[12]
  T/C: 97 % of control
[16]
  T/C: 93 % of control
[13]
  T/C: 92 % of control

## N#CC(=C(c1ccccc1)c1ccccc1)c1ccccc1
[11]
  T/C: 108 % of control
[12]
  T/C: 108 % of control
[13]
  T/C: 106 % of control

## COc1ccc(OC)c(C(Nc2ccc3cn[nH]c3c2)P(=O)(c2ccccc2)c2ccccc2)c1 (stereo not given)
[17]
  T/C: 93 % of control
[18]
  T/C: 95 % of control
[19]
  T/C: 103 % of control and 104 % of control
[20]
  T/C: 96 % of control
[21]
  T/C: 103 % of control
[22]
  T/C: 95 % of control
[23]
  T/C: 95 % of control and 90 % of control
[24]
  T/C: 95 % of control
[25]
  T/C: 92 % of control
[26]
  T/C: 97 % of control
[27]
  T/C: 93 % of control
[28]
  T/C: 92 % of control

## CNC1CCCCC1
dose: 50.0 mg/kg/injection, schedule: Q01DX001 (ip), vehicle: carboxymethylcellulose (CMC)
  T/C: 96 % of control
[29]
  T/C: 102 % of control
[30]
  T/C: 106 % of control
[31]
  T/C: 112 % of control

## CC[N+](=Cc1ccccc1)C1CCCCC1
[3]
  T/C: 88 % of control
[4]
  T/C: 100 % of control
[10]
  T/C: 93 % of control
[6]
  T/C: 97 % of control
[9]
  T/C: 108 % of control

## Cc1cn(C2CC(O)C(CO)O2)c(=O)n(Cc2ccccc2)c1=O (stereo not given)
[1]
  T/C: 108 % of control
[2]
  T/C: 108 % of control
[5]
  T/C: 98 % of control
[7]
  T/C: 108 % of control

## CC(=O)OC1C(C(N)=O)CC(C(=O)O)C1OC(C)=O (stereo not given)
[2]
  T/C: 112 % of control
[5]
  T/C: 114 % of control
[7]
  T/C: 106 % of control

## Cc1ccc(S(=O)(=O)N(C)c2cc(Cl)c(C#N)c(Cl)c2)cc1
dose: 100.0 mg/kg/injection, schedule: Q01DX001 (ip), vehicle: Klucel (hydroxypropylcellulose) (HPC)
  T/C: 96 % of control
[11]
  T/C: 102 % of control
dose: 200.0 mg/kg/injection, schedule: Q01DX001 (ip), vehicle: Klucel (hydroxypropylcellulose) (HPC)
  T/C: 96 % of control
[12]
  T/C: 93 % of control and 92 % of control
dose: 400.0 mg/kg/injection, schedule: Q01DX001 (ip), vehicle: Klucel (hydroxypropylcellulose) (HPC)
  T/C: 89 % of control
[13]
  T/C: 97 % of control and 91 % of control

## COc1ccccc1OCC(C)=O
[18]
  T/C: 95 % of control
[22]
  T/C: 105 % of control
[26]
  T/C: 105 % of control

## CCN(CC)C(=O)Cn1ccc(N)nc1=O
[3]
  T/C: 115 % of control
[4]
  T/C: 100 % of control
[10]
  T/C: 98 % of control
[6]
  T/C: 100 % of control
[8]
  T/C: 97 % of control
[9]
  T/C: 102 % of control

## Cc1c(C)c2c(c(C)c1O)CCC(=O)O2
[20]
  T/C: 91 % of control
[24]
  T/C: 92 % of control
[28]
  T/C: 94 % of control

## CCOC(=O)c1ccc(NC(=O)Nc2ccccc2C(F)(F)F)cc1
[14]
  T/C: 88 % of control
[15]
  T/C: 89 % of control
[16]
  T/C: 86 % of control

## CN=NCc1ccccc1
dose: 90.0 mg/kg/injection, schedule: Q04DX002 (ip), vehicle: saline with Tween-80
  T/C: 106 % of control
[19]
  T/C: 108 % of control and 122 % of control
dose: 133.0 mg/kg/injection, schedule: Q04DX002 (ip), vehicle: saline with Tween-80
  T/C: 120 % of control
[23]
  T/C: 106 % of control and 111 % of control
dose: 300.0 mg/kg/injection, schedule: Q04DX002 (ip), vehicle: saline with Tween-80
  T/C: 117 % of control

## O=C1CC(Cc2n[nH]c3c2CCC3)CC(=O)N1
[29]
  T/C: 103 % of control
dose: 100.0 mg/kg/injection, schedule: Q04DX003 (ip), vehicle: carboxymethylcellulose (CMC)
  T/C: 97 % of control
[30]
  T/C: 97 % of control
dose: 200.0 mg/kg/injection, schedule: Q04DX003 (ip), vehicle: carboxymethylcellulose (CMC)
  T/C: 94 % of control
[31]
  T/C: 105 % of control
dose: 400.0 mg/kg/injection, schedule: Q04DX003 (ip), vehicle: carboxymethylcellulose (CMC)
  T/C: 101 % of control

## COc1cc([N+](=O)[O-])ccc1NC(=O)N(C1CCCCC1)C1CCCCC1
dose: 50.0 mg/kg/injection, schedule: Q01DX009 (ip), vehicle: saline with Tween-80
  T/C: 100 % of control and 106 % of control
dose: 50.0 mg/kg/injection, schedule: Q04DX002 (ip), vehicle: saline with Tween-80
  T/C: 90 % of control
[17]
  T/C: 95 % of control
[18]
  T/C: 96 % of control and 108 % of control
[19]
  T/C: 93 % of control and 99 % of control and 105 % of control
[20]
  T/C: 108 % of control
[21]
  T/C: 91 % of control
[22]
  T/C: 100 % of control and 104 % of control
[23]
  T/C: 89 % of control
[24]
  T/C: 106 % of control
[25]
  T/C: 91 % of control
[26]
  T/C: 108 % of control and 111 % of control
[27]
  T/C: 93 % of control and 97 % of control and 99 % of control
[28]
  T/C: 104 % of control
